What was measured:
Settings in all cases: incubation time: 72 h
CAL-51 = assay: normalised viability (% of control), CellTiter-Blue; higher = more viable cells (about 100 = DMSO control)
Experimental: (§1)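 DSRT, CellTiter-Blue viability, 72 h incubation. Signal is normalised to DMSO and benzethonium chloride controls. Value is the normalised response at dose 7.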

CAL-85-1 [1] = assay: as above
Experimental: as §1

MDA-MB-453 = assay: as above
Experimental: as §1

HDQ-P1 [2] = assay: as above
Experimental: as §1

CAL-148 = assay: as above
Experimental: as §1

MFM-223 = assay: normalised response (% of control), CellTiter-Glo; higher = more viable cells (100 = DMSO, 0 = benzethonium chloride kill control)
Experimental: (§2)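 DSRT, 72 h incubation, CellTox Green / CellTiter-Glo readout. Signal is normalised to DMSO and benzethonium chloride controls. Value is the normalised response at the highest dose.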

SK-BR-3 = assay: as above
Experimental: as §2

BT-474 = assay: as above
Experimental: as §2

CAL-120 = assay: as above
Experimental: as §2

CAL-85-1 [3] = assay: as above
Experimental: as §2

MDA-MB-436 = assay: as above
Experimental: as §2

HDQ-P1 [4] = assay: as above
Experimental: as §2

MDA-MB-468 = assay: as above
Experimental: as §2

BT-549 = assay: as above
Experimental: as §2

MDA-MB-231 = assay: drug sensitivity score (DSS), CellTox Green (DSS (AUC-based score)); higher = stronger drug effect (viability inhibition or cytotoxicity); extreme values may be limits of the assay
Procedure, shortened: (§3)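 For 72 h, breast cancer cell lines seeded at 20 µl suspension per well in 384-well plates were incubated with compound at 5 concentrations in 10-fold steps spanning a 10,000-fold range that differed by compound. The first reading was CellTox Green fluorescence at 485/520 nm, and the second was CellTiter-Glo luminescence after 10 min at room temperature. Both were normalised per plate to 0.1 % DMSO and a positive kill control, and the drug sensitivity score was obtained from the area under the fitted dose-response curve.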

Hs578T = assay: as above
Procedure, shortened: as §3

HCC1937 = assay: as above
Procedure, shortened: as §3

CN1CCC(COc2cnc(-c3cccc(Cn4nc(-c5cccc(C#N)c5)ccc4=O)c3)nc2)CC1 (1000 nM)
normalised viability (CAL-51): 99.2% | normalised viability (CAL-85-1 [1]): 98.6% | normalised viability (MDA-MB-453): 90.8% | normalised viability (HDQ-P1 [2]): 95% | normalised viability (CAL-148): 90.4% | normalised response (MFM-223): 84.9% | normalised response (SK-BR-3): 81% | normalised response (BT-474): 93.3% | normalised response (CAL-120): 96.1% | normalised response (CAL-85-1 [3]): 99.8% | normalised response (MDA-MB-436): 84.4% | normalised response (HDQ-P1 [4]): 99.6% | normalised response (MDA-MB-468): 90.3% | normalised response (BT-549): 91.9%

CN(C)C/C=C/C(=O)Nc1cc2c(Nc3ccc(F)c(Cl)c3)ncnc2cc1O[C@H]1CCOC1 [Afatinib] (1000 nM)
normalised viability (CAL-51): 99.7% | normalised viability (CAL-85-1 [1]): 48.6% | normalised viability (MDA-MB-453): 27.5% | normalised viability (HDQ-P1 [2]): 49.8% | normalised viability (CAL-148): 73.7% | normalised response (MFM-223): 93% | normalised response (SK-BR-3): 24.8% | normalised response (BT-474): 80.2% | normalised response (CAL-120): 93.5% | normalised response (CAL-85-1 [3]): 61.7% | normalised response (MDA-MB-436): 98% | normalised response (HDQ-P1 [4]): 64.3% | normalised response (MDA-MB-468): 66.8% | normalised response (BT-549): 89.1%

COc1cc(Nc2ncc3c(n2)-c2ccc(Cl)cc2C(c2c(F)cccc2OC)=NC3)ccc1C(=O)O [Alisertib]
drug sensitivity score (MDA-MB-231): 8.87 | drug sensitivity score (Hs578T): 0 | drug sensitivity score (HCC1937): 1.76

CN1CC[C@H](c2c(O)cc(O)c3c(=O)cc(-c4ccccc4Cl)oc23)[C@H](O)C1 [Alvocidib] (1000 nM)
normalised viability (CAL-51): 4.57% | normalised viability (CAL-85-1 [1]): 1.95% | normalised viability (MDA-MB-453): 9.17% | normalised viability (HDQ-P1 [2]): 10.8% | normalised viability (CAL-148): 10.3%

Nc1nc(Cl)nc2c1ncn2[C@H]1C[C@H](O)[C@@H](CO)O1 [Cladribine] (100 nM)
normalised viability (CAL-51): 111% | normalised viability (CAL-85-1 [1]): 84.2% | normalised viability (MDA-MB-453): 98.4% | normalised viability (HDQ-P1 [2]): 95.5% | normalised viability (CAL-148): 96.9%

Nc1ccn([C@@H]2O[C@H](CO)[C@@H](O)[C@@H]2O)c(=O)n1 [Cytarabine] (1000 nM)
normalised viability (CAL-51): 29.8% | normalised viability (CAL-85-1 [1]): 88.5% | normalised viability (MDA-MB-453): 62.4% | normalised viability (HDQ-P1 [2]): 82.2% | normalised viability (CAL-148): 44.6%

Cc1c2oc3c(C)ccc(C(=O)N[C@@H]4C(=O)N[C@H](C(C)C)C(=O)N5CCC[C@H]5C(=O)N(C)CC(=O)N(C)[C@@H](C(C)C)C(=O)O[C@@H]4C)c3nc-2c(C(=O)N[C@@H]2C(=O)N[C@H](C(C)C)C(=O)N3CCC[C@H]3C(=O)N(C)CC(=O)N(C)[C@@H](C(C)C)C(=O)O[C@@H]2C)c(N)c1=O [Dactinomycin] (100 nM)
normalised viability (CAL-51): 2.49% | normalised viability (CAL-85-1 [1]): 3.46% | normalised viability (MDA-MB-453): 4.93% | normalised viability (HDQ-P1 [2]): 12.9% | normalised viability (CAL-148): 7.49%

COc1cccc2c1C(=O)c1c(O)c3c(c(O)c1C2=O)C[C@@](O)(C(=O)CO)C[C@@H]3O[C@H]1C[C@H](N)[C@H](O)[C@H](C)O1 [Doxorubicin] (100 nM)
normalised viability (CAL-51): 66.1% | normalised viability (CAL-85-1 [1]): 77.5% | normalised viability (MDA-MB-453): 98.8% | normalised viability (HDQ-P1 [2]): 70.9% | normalised viability (CAL-148): 39.1%

Cc1ccc(F)c(NC(=O)Nc2ccc(-c3cccc4[nH]nc(N)c34)cc2)c1 [Linifanib]
drug sensitivity score (MDA-MB-231): 0 | drug sensitivity score (Hs578T): 0 | drug sensitivity score (HCC1937): 0

Cc1ccc(F)c(NC(=O)Nc2ccc(-c3cccc4[nH]nc(N)c34)cc2)c1 [Linifanib] (100 nM)
normalised viability (CAL-51): 108% | normalised viability (CAL-85-1 [1]): 87.4% | normalised viability (MDA-MB-453): 100% | normalised viability (HDQ-P1 [2]): 113% | normalised viability (CAL-148): 103%

CC(=O)O[C@]1(C(C)=O)CC[C@H]2[C@@H]3C=C(C)C4=CC(=O)CC[C@]4(C)[C@H]3CC[C@@]21C [Megestrol acetate]
drug sensitivity score (MDA-MB-231): 0 | drug sensitivity score (Hs578T): 1.68 | drug sensitivity score (HCC1937): 0

S=c1[nH]cnc2nc[nH]c12 [Mercaptopurine] (1000 nM)
normalised viability (CAL-51): 101% | normalised viability (CAL-85-1 [1]): 78.4% | normalised viability (MDA-MB-453): 110% | normalised viability (HDQ-P1 [2]): 90.3% | normalised viability (CAL-148): 100%

Clc1ccc(C(c2ccccc2Cl)C(Cl)Cl)cc1 (configuration not stated) [Mitotane]
drug sensitivity score (Hs578T): 0 | drug sensitivity score (HCC1937): 1.4

Clc1ccc(C(c2ccccc2Cl)C(Cl)Cl)cc1 (configuration not stated) [Mitotane] (1000 nM)
normalised viability (CAL-51): 105% | normalised viability (CAL-85-1 [1]): 83.2% | normalised viability (MDA-MB-453): 97.5% | normalised viability (HDQ-P1 [2]): 104% | normalised viability (CAL-148): 108%

CCN1CCN(c2ccc(Nc3cc(N(C)C(=O)Nc4c(Cl)c(OC)cc(OC)c4Cl)ncn3)cc2)CC1 [NVP-BGJ398]
drug sensitivity score (MDA-MB-231): 2.84 | drug sensitivity score (Hs578T): 0 | drug sensitivity score (HCC1937): 0

COc1cccc2cc(-c3nc([C@H]4CC[C@H](C(=O)O)CC4)n4ncnc(N)c34)[nH]c12 [OSI-027] (1000 nM)
normalised viability (CAL-51): 61.8% | normalised viability (CAL-85-1 [1]): 61% | normalised viability (MDA-MB-453): 37.5% | normalised viability (HDQ-P1 [2]): 39.3% | normalised viability (CAL-148): 65.1%

OC[C@H]1O[C@@H](n2cnc3c2N=CNC[C@H]3O)C[C@@H]1O [Pentostatin]
drug sensitivity score (MDA-MB-231): 0 | drug sensitivity score (Hs578T): 0 | drug sensitivity score (HCC1937): 0

OC[C@H]1O[C@@H](n2cnc3c2N=CNC[C@H]3O)C[C@@H]1O [Pentostatin] (1000 nM)
normalised viability (CAL-51): 89.9% | normalised viability (CAL-85-1 [1]): 108% | normalised viability (MDA-MB-453): 98.2% | normalised viability (HDQ-P1 [2]): 85.4% | normalised viability (CAL-148): 123%

N#CC[C@H](C1CCCC1)n1cc(-c2ncnc3[nH]ccc23)cn1 [Ruxolitinib] (1000 nM)
normalised viability (CAL-51): 90% | normalised viability (CAL-85-1 [1]): 110% | normalised viability (MDA-MB-453): 92.4% | normalised viability (HDQ-P1 [2]): 91.1% | normalised viability (CAL-148): 101%

C=CC[C@@H]1/C=C(\C)C[C@H](C)C[C@H](OC)[C@H]2O[C@@](O)(C(=O)C(=O)N3CCCC[C@H]3C(=O)O[C@H](/C(C)=C/[C@@H]3CC[C@@H](O)[C@H](OC)C3)[C@H](C)[C@@H](O)CC1=O)[C@H](C)C[C@@H]2OC [Tacrolimus]
drug sensitivity score (MDA-MB-231): 2.92 | drug sensitivity score (Hs578T): 0 | drug sensitivity score (HCC1937): 0

C=CC[C@@H]1/C=C(\C)C[C@H](C)C[C@H](OC)[C@H]2O[C@@](O)(C(=O)C(=O)N3CCCC[C@H]3C(=O)O[C@H](/C(C)=C/[C@@H]3CC[C@@H](O)[C@H](OC)C3)[C@H](C)[C@@H](O)CC1=O)[C@H](C)C[C@@H]2OC [Tacrolimus] (1000 nM)
normalised viability (CAL-51): 96.6% | normalised viability (CAL-85-1 [1]): 95.4% | normalised viability (MDA-MB-453): 108% | normalised viability (HDQ-P1 [2]): 111% | normalised viability (CAL-148): 103%

C=CCNC1=C2C[C@@H](C)C[C@H](OC)[C@H](O)[C@@H](C)/C=C(\C)[C@H](OC(N)=O)[C@@H](OC)/C=C\C=C(/C)C(=O)NC(=CC1=O)C2=O [Tanespimycin] (1000 nM)
normalised viability (CAL-51): 24.2% | normalised viability (CAL-85-1 [1]): 24.7% | normalised viability (MDA-MB-453): 7.14% | normalised viability (HDQ-P1 [2]): 22.9% | normalised viability (CAL-148): 20.8%

CO[C@H]1C[C@@H]2CC[C@@H](C)[C@@](O)(O2)C(=O)C(=O)N2CCCC[C@H]2C(=O)O[C@H]([C@H](C)C[C@@H]2CC[C@@H](OC(=O)C(C)(CO)CO)[C@H](OC)C2)CC(=O)[C@H](C)/C=C(\C)[C@@H](O)[C@@H](OC)C(=O)[C@H](C)C[C@H](C)/C=C/C=C/C=C/1C [Temsirolimus] (100 nM)
normalised viability (CAL-51): 37.9% | normalised viability (CAL-85-1 [1]): 53.2% | normalised viability (MDA-MB-453): 24.9% | normalised viability (HDQ-P1 [2]): 71.8% | normalised viability (CAL-148): 37% | normalised response (MFM-223): 67.7% | normalised response (SK-BR-3): 53% | normalised response (BT-474): 84.3% | normalised response (CAL-120): 65.4% | normalised response (CAL-85-1 [3]): 60.5% | normalised response (MDA-MB-436): 83% | normalised response (HDQ-P1 [4]): 77.9% | normalised response (MDA-MB-468): 56.9% | normalised response (BT-549): 56.3%

O=C(c1ccc(C(=O)N2CCC(N3CCCC3)CC2)c(Nc2ccccc2)c1)N1CCC(N2CCCC2)CC1 [UNC1215]
drug sensitivity score (MDA-MB-231): 0 | drug sensitivity score (HCC1937): 0

C[C@]1(c2nc3c(C(N)=O)cccc3[nH]2)CCCN1 [Veliparib]
drug sensitivity score (MDA-MB-231): 0 | drug sensitivity score (Hs578T): 0 | drug sensitivity score (HCC1937): 0

C[C@]1(c2nc3c(C(N)=O)cccc3[nH]2)CCCN1 [Veliparib] (1000 nM)
normalised viability (CAL-51): 107% | normalised viability (CAL-85-1 [1]): 73.3% | normalised viability (MDA-MB-453): 84.4% | normalised viability (HDQ-P1 [2]): 97.1% | normalised viability (CAL-148): 106%

CC[C@]1(O)C[C@@H]2CN(CCc3c([nH]c4ccccc34)[C@@](C(=O)OC)(c3cc4c(cc3OC)N(C)[C@H]3[C@@](O)(C(=O)OC)[C@H](OC(C)=O)[C@]5(CC)C=CCN6CC[C@]43[C@@H]65)C2)C1 [Vinblastine] (100 nM)
normalised viability (CAL-51): 23.3% | normalised viability (CAL-85-1 [1]): 30.2% | normalised viability (MDA-MB-453): 23.8% | normalised viability (HDQ-P1 [2]): 37.6% | normalised viability (CAL-148): 20.1%

CS(=O)(=O)c1ccc(C(=O)Nc2ccc(Cl)c(-c3ccccn3)c2)c(Cl)c1 [Vismodegib] (1000 nM)
normalised viability (CAL-51): 99.1% | normalised viability (CAL-85-1 [1]): 97.1% | normalised viability (MDA-MB-453): 98.3% | normalised viability (HDQ-P1 [2]): 92.4% | normalised viability (CAL-148): 98.3%

From the supplement of paper PMC4862054
